Reference: PubChem BioAssay AID1963861 (Molecular Pharmacology Branch, DTP, NCI, 2024)

Tested on: 885724-159-R-J1-PDC KRAS PDC multicell spheroid viability
Test: Anticancer human tumor 885724-159-R-J1-PDC patient-derived pancreatic adenocarcinoma cell line growth inhibition [KRAS2]
Details: for IC50: curve of first compound; for viability, T/C: stronger effect = lower value
Outline: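 Combination screen of spheroid viability in tumor-cell co-cultures with endothelial (HUVEC) and mesenchymal stem cell stroma. Each agent was tested in half-log dilutions, topping at clinical Cmax or at 10 microM without a known Cmax.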

[1] = second compound 0.0316 µM, first compound 0.01 µM
[2] = second compound 0.0316 µM, first compound 0.0316 µM
[3] = second compound 0.0316 µM, first compound 0.1 µM
[4] = second compound 0.0316 µM, first compound 0.316 µM
[5] = second compound 0.0316 µM, first compound 1 µM
[6] = second compound 0.0316 µM, first compound 3.16 µM
[7] = second compound 0.1 µM, first compound 0.01 µM
[8] = second compound 0.1 µM, first compound 0.0316 µM
[9] = second compound 0.1 µM, first compound 0.1 µM
[10] = second compound 0.1 µM, first compound 0.316 µM
[11] = second compound 0.1 µM, first compound 1 µM
[12] = second compound 0.1 µM, first compound 3.16 µM
[13] = second compound 0.316 µM, first compound 0.01 µM
[14] = second compound 0.316 µM, first compound 0.0316 µM
[15] = second compound 0.316 µM, first compound 0.1 µM
[16] = second compound 0.316 µM, first compound 0.316 µM
[17] = second compound 0.316 µM, first compound 1 µM
[18] = second compound 0.316 µM, first compound 3.16 µM
[19] = second compound 1 µM, first compound 0.01 µM
[20] = second compound 1 µM, first compound 0.0316 µM
[21] = second compound 1 µM, first compound 0.1 µM
[22] = second compound 1 µM, first compound 0.316 µM
[23] = second compound 1 µM, first compound 1 µM
[24] = second compound 1 µM, first compound 3.16 µM
[25] = second compound 3.16 µM, first compound 0.01 µM
[26] = second compound 3.16 µM, first compound 0.0316 µM
[27] = second compound 3.16 µM, first compound 0.1 µM
[28] = second compound 3.16 µM, first compound 0.316 µM
[29] = second compound 3.16 µM, first compound 1 µM
[30] = second compound 3.16 µM, first compound 3.16 µM
[31] = second compound 0.0316 µM, first compound 10 µM
[32] = second compound 0.1 µM, first compound 10 µM
[33] = second compound 0.316 µM, first compound 10 µM
[34] = second compound 1 µM, first compound 10 µM
[35] = second compound 3.16 µM, first compound 10 µM
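Note: spheroids exposed to agents for 7 days before readout.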

CC(=O)OC12COC1CC(O)C1(C)C(=O)C(O)C3=C(C)C(OC(=O)C(O)C(NC(=O)OC(C)(C)C)c4ccccc4)CC(O)(C(OC(=O)c4ccccc4)C21)C3(C)C (stereo not given) + C=CC(=O)N1CCN(c2nc(OCC3CCCN3C)nc3c2CCN(c2cccc4cccc(C)c24)C3)CC1CC#N was tested, and the IC50 (second compound 0.0316 µM) was over 3.16 µM, the IC50 (second compound 0.1 µM) was over 3.16 µM and the IC50 (second compound 0.316 µM) was over 3.16 µM. It also gave an IC50 (second compound 1 µM) of over 3.16 µM, an IC50 (second compound 3.16 µM) of over 3.16 µM and a viability, T/C [1] of 86.9%. The viability, T/C [2] was 95.8%, the viability, T/C [3] was 102% and the viability, T/C [4] was 101%. The viability, T/C [5] was 110%, the viability, T/C [6] was 109% and the viability, T/C [7] was 87.5%. The viability, T/C [8] was 94.9%, the viability, T/C [9] was 97% and the viability, T/C [10] was 106%. For the same compound, the viability, T/C [11] was 116%, the viability, T/C [12] was 115% and the viability, T/C [13] was 85.5%. The viability, T/C [14] was 97.5%, the viability, T/C [15] was 92.8% and the viability, T/C [16] was 101%. For the same compound, the viability, T/C [17] was 115%, the viability, T/C [18] was 103% and the viability, T/C [19] was 82.6%. The viability, T/C [20] was 86.9%, the viability, T/C [21] was 91.8% and the viability, T/C [22] was 96.7%. It also gave a viability, T/C [23] of 99.2%, a viability, T/C [24] of 96.7% and a viability, T/C [25] of 87.2%. The viability, T/C [26] was 100%, the viability, T/C [27] was 99.6% and the viability, T/C [28] was 105%. For the same compound, the viability, T/C [29] was 111% and the viability, T/C [30] was 115%.

With CN(C)C/C=C/C(=O)Nc1cc2c(Nc3ccc(F)c(Cl)c3)ncnc2cc1O[C@H]1CCOC1 + C=CC(=O)N1CCN(c2nc(OCC3CCCN3C)nc3c2CCN(c2cccc4cccc(C)c24)C3)CC1CC#N the IC50 (second compound 0.0316 µM) was over 0.1 µM, the IC50 (second compound 0.1 µM) was over 0.1 µM and the IC50 (second compound 0.316 µM) was over 0.1 µM. The IC50 (second compound 1 µM) was over 0.1 µM, the IC50 (second compound 3.16 µM) was 0.00157 µM and the viability, T/C (second compound 0.0316 µM, first compound 0.000316 µM) was 116%. For the same compound, the viability, T/C (second compound 0.0316 µM, first compound 0.001 µM) was 112%, the viability, T/C (second compound 0.0316 µM, first compound 0.00316 µM) was 98.5% and the viability, T/C [1] was 94.5%. The viability, T/C [2] was 89.1%, the viability, T/C [3] was 80.3% and the viability, T/C (second compound 0.1 µM, first compound 0.000316 µM) was 109%. It also gave a viability, T/C (second compound 0.1 µM, first compound 0.001 µM) of 101%, a viability, T/C (second compound 0.1 µM, first compound 0.00316 µM) of 96.5% and a viability, T/C [7] of 83.1%. The viability, T/C [8] was 77.4%, the viability, T/C [9] was 72% and the viability, T/C (second compound 0.316 µM, first compound 0.000316 µM) was 105%. For the same compound, the viability, T/C (second compound 0.316 µM, first compound 0.001 µM) was 106%, the viability, T/C (second compound 0.316 µM, first compound 0.00316 µM) was 92.4% and the viability, T/C [13] was 84.1%. For the same compound, the viability, T/C [14] was 72%, the viability, T/C [15] was 65.7% and the viability, T/C (second compound 1 µM, first compound 0.000316 µM) was 95%. The viability, T/C (second compound 1 µM, first compound 0.001 µM) was 100%, the viability, T/C (second compound 1 µM, first compound 0.00316 µM) was 86.8% and the viability, T/C [19] was 78.4%. For the same compound, the viability, T/C [20] was 68.7%, the viability, T/C [21] was 63.9% and the viability, T/C (second compound 3.16 µM, first compound 0.000316 µM) was 61.5%. It also gave a viability, T/C (second compound 3.16 µM, first compound 0.001 µM) of 55.9%, a viability, T/C (second compound 3.16 µM, first compound 0.00316 µM) of 40.8% and a viability, T/C [25] of 37.7%. It also gave a viability, T/C [26] of 36.4% and a viability, T/C [27] of 37.7%.

Compound COC(=O)c1ccc2c(C(=Nc3ccc(N(C)C(=O)CN4CCN(C)CC4)cc3)c3ccccc3)c(O)[nH]c2c1 + C=CC(=O)N1CCN(c2nc(OCC3CCCN3C)nc3c2CCN(c2cccc4cccc(C)c24)C3)CC1CC#N has an IC50 (second compound 0.0316 µM) of 2.08 µM, an IC50 (second compound 0.1 µM) of 1.86 µM and an IC50 (second compound 0.316 µM) of 1.71 µM. For the same compound, the IC50 (second compound 1 µM) was 1.68 µM, the IC50 (second compound 3.16 µM) was 0.431 µM and the viability, T/C [2] was 100%. The viability, T/C [3] was 104%, the viability, T/C [4] was 101% and the viability, T/C [5] was 94.5%. The viability, T/C [6] was 24.4%, the viability, T/C [31] was 0.81% and the viability, T/C [8] was 100%. It also gave a viability, T/C [9] of 97%, a viability, T/C [10] of 98.5% and a viability, T/C [11] of 85.1%. It also gave a viability, T/C [12] of 19.9%, a viability, T/C [32] of 0.65% and a viability, T/C [14] of 100%. For the same compound, the viability, T/C [15] was 100%, the viability, T/C [16] was 91.5% and the viability, T/C [17] was 83.8%. It also gave a viability, T/C [18] of 11.3%, a viability, T/C [33] of 0.77% and a viability, T/C [20] of 90.4%. It also gave a viability, T/C [21] of 91.4%, a viability, T/C [22] of 85.9% and a viability, T/C [23] of 84.5%. For the same compound, the viability, T/C [24] was 7.97%, the viability, T/C [34] was 0.43% and the viability, T/C [26] was 58.4%. For the same compound, the viability, T/C [27] was 51.1%, the viability, T/C [28] was 54.1% and the viability, T/C [29] was 38%. The viability, T/C [30] was 1.11% and the viability, T/C [35] was 0.32%.

O=C(c1cc(Cc2n[nH]c(=O)c3ccccc23)ccc1F)N1CCN(C(=O)C2CC2)CC1 + C=CC(=O)N1CCN(c2nc(OCC3CCCN3C)nc3c2CCN(c2cccc4cccc(C)c24)C3)CC1CC#N was tested, and the IC50 (second compound 0.0316 µM) was over 10 µM, the IC50 (second compound 0.1 µM) was over 10 µM and the IC50 (second compound 0.316 µM) was over 10 µM. For the same compound, the IC50 (second compound 1 µM) was over 10 µM, the IC50 (second compound 3.16 µM) was 4.94 µM and the viability, T/C [2] was 127%. It also gave a viability, T/C [3] of 120%, a viability, T/C [4] of 119% and a viability, T/C [5] of 119%. For the same compound, the viability, T/C [6] was 112%, the viability, T/C [31] was 96.7% and the viability, T/C [8] was 122%. It also gave a viability, T/C [9] of 118%, a viability, T/C [10] of 117% and a viability, T/C [11] of 109%. The viability, T/C [12] was 104%, the viability, T/C [32] was 93% and the viability, T/C [14] was 111%. The viability, T/C [15] was 115%, the viability, T/C [16] was 113% and the viability, T/C [17] was 108%. The viability, T/C [18] was 99%, the viability, T/C [33] was 101% and the viability, T/C [20] was 112%. The viability, T/C [21] was 116%, the viability, T/C [22] was 106% and the viability, T/C [23] was 108%. It also gave a viability, T/C [24] of 108%, a viability, T/C [34] of 89% and a viability, T/C [26] of 66.9%. For the same compound, the viability, T/C [27] was 65%, the viability, T/C [28] was 60.5% and the viability, T/C [29] was 58%. For the same compound, the viability, T/C [30] was 58.3% and the viability, T/C [35] was 40.8%.
